pEC50, pIC50: −log10 of the molar value.
How the values were obtained:
[1] = system: HL-60 cells; assay: HL-60 cell differentiation (oxidative burst via NBT reduction); type: cell-based; details: Homo sapiens, 72 h, 3 days, NBT reduction at 540 nm, mean of 3 wells, read-out: ED50 (concentration leading to 50% of maximal differentiation achieved with 100-1000 nM calcitriol)
Experimental: The induction of differentiation of HL-60 cells was assayed by measuring their oxidative burst potential via the reduction of NBT (Nitrobluetetrazolium).
30,000 cells/90 μl of RPMI/FCS were seeded into flat-bottomed microtiter wells. 10 μl of vitamin D derivatives diluted in complete medium were added at the same time to yield final concentrations between 10^-11 and 10^-6 M (stock solutions of 10^-2 M in ethanol were kept at -20° C. and protected from light).
Values were expressed as percent of maximal differentiation achieved with 100-1000 nM calcitriol in the same experiment.

[2] = system: HaCaT cells; assay: Inhibition of keratinocyte proliferation (3H-thymidine uptake, HaCaT); type: cell-based; details: HaCaT human keratinocyte line, 6 days of culture
Experimental: HaCaT cell line--The immortalized human cell line HaCaT was used. ^3 H-thymidine incorporation was measured in exponentially growing cultures after 6 days of culture in presence of the test compound.
Cell culture--HaCaT cells were cultured in Dulbecco's Modified Eagle Medium (DMEM) and Nutrient Mixture Ham's F12 (F12), 3:1 (v/v, ICN) containing 4.5 g/l glucose and supplemented with 10% fetal calf serum (Gibco, FCS), L-glutamine (Gibco, 2mM), penicillin (Gibco, 50 UI/ml), streptomycin (Gibco, 50 μg/ml), EGF (10 ng/ml), hydrocortisone (400 ng/ml), cholera toxin (8.5 ng/ml) and insulin (5 ng/ml). The cells were maintained in a humidified atmosphere containing 5% CO2 and 95% air and passaged every 3-4 days.
Inhibition of ^3 H-thymidine uptake--HaCaT cells (250 cells in complete culture medium) were seeded into 96-well culture dishes and incubated at 37° C. with 5% CO2 and 95% air for 6 days. Inhibitors, dissolved at 10× concentration in 1% ethanol, were added immediately at the beginning of the assay. ^3 H-thymidine (5 Ci/mmol, Amersham) was added at a concentration of 1 μCi/well and cells were pulse-labelled for the last 6 hours of the growth period. Cells were then trypsinized for 10 minutes at 37° C. under a vigorous agitation and harvested on to a 96-well GF/C filter plate (Uni Filter, Packard) using a Micro Mate 196 cell harvester (Packard). After drying at 40° C. under vacuum for 20-30 minutes, 2 μl of Micro Scint 0 scintillator (Packard) were added and the radioactivity bound to the filters was counted on a TOP COUNT (Packard).

[3] = system: sebaceous cells; assay: Inhibition of human sebocyte proliferation in vitro; type: cell-based; details: tested at 10^-6, 10^-7 and 10^-8 M, vs vehicle-treated culture, read-out: ED50 (amount of compound necessary to inhibit the proliferation of sebaceous cells by 50%)
Experimental: Sebaceous cells were isolated from adult human sebaceous glands by a combination of enzymatic and mechanical methods (Doran et al., Characterization of Human Cells In Vitro, J. Invest. Dermatol. 96:34-8 (1991)). The cells were cultured in Iscove's medium containing 10% fetal calf serum and 4 μg/ml dexamethasone on a layer of growth-arrested 3T3 mouse fibroblasts. Cells were plated in medium without the test compound and then given test compound in fresh medium, containing the test compound, every 48 hours. On the day of harvesting, the cultures were rinsed with 0.03% EDTA in PBS, to remove only the 3T3 fibroblasts, followed by incubation in 0.05% trypsin/0.03% EDTA. The cells were suspended, mixed vigorously to prepare a single cell suspension and counted in a hemocytometer.
Stock solutions of compounds were made up as 10^-2 M solutions in degassed 100% ethanol and stored at -20° C. in the dark. During experimental use, the solutions, which have been aliquoted, were brought to room temperature and used by diluting directly into complete medium to appropriate concentration.
The compounds were tested for the inhibition of proliferation of sebaceous cell growth in vitro at 10^-6, 10^-7 and 10^-8 M.
The results are summarized in Table III below as the amount of compound necessary to inhibit the proliferation of sebaceous cells by 50% (ED50) in nM as compared to a vehicle-treated culture.

[4] = Calcium liability (tolerance test in mice); details: mouse, in vivo, sc, daily subcutaneous administration for 4 consecutive days, 5 day treatment period, read-out: HTD (highest tolerated dose: dose which results in zero weight gain)
Source text: Profound changes in calcium homeostasis strongly affect the weight development of the animals. This parameter was used as a primary test for tolerance.
Mice (25-30 g body weight) received daily subcutaneous administrations of the vitamin D derivative for 4 consecutive days. Body weight was registered just before and at the end of a […] treatment period. The "highest tolerated dose" (HTD) is the dose which results in zero weight gain during this treatment period.

Compound	pEC50 [1]	pIC50 [2]	pIC50 [3]	MTD at 120 h [4]
C=C1/C(=C\C=C2/CCC[C@]3(C)C([C@H](C)CC#CC(C)(O)C(F)(F)F)=CC[C@@H]23)C[C@@H](O)C[C@@H]1O (stereo partly drawn) [1,25(R,S)-Dihydroxy-16-ene-23-yne-26-trifluoro-cholecalciferol]	9.82	8.00	9.00	0.001 mg/kg
C=C1/C(=C\C=C2/CCC[C@]3(C)C([C@H](C)CC#CC(C)(O)C(F)(F)F)=CC[C@@H]23)C[C@@H](O)C[C@@H]1F (stereo partly drawn) [1α-fluoro-25(R,S)-hydroxy-16-ene-23-yne-26-trifluoro-cholecalciferol]	8.43	7.96	–	0.02 mg/kg
C[C@H](CC#CC(C)(O)C(F)(F)F)C1=CC[C@H]2/C(=C/C=C3C[C@@H](O)C[C@H](O)C3)CCC[C@]12C (stereo partly drawn) [1,25(R,S)-Dihydroxy-16-ene-23-yne-26-trifluoro-19-nor-cholecalciferol]	9.43	8.29	–	0.002 mg/kg
C=C1/C(=C\C=C2/CCC[C@]3(C)[C@@H]([C@H](C)CCCC(C)(C)O)CC[C@@H]23)C[C@@H](O)C[C@@H]1O [1,25-Dihydroxycholecalciferol, reference compound]	8.10	–	–	–
C=C1CC[C@H](O)C/C1=C/C=C1\CCC[C@]2(C)C([C@H](C)CC#CC(C)(O)C(F)(F)F)=CC[C@@H]12 (stereo partly drawn) [25(R,S)-Hydroxy-16-ene-23-yne-26-trifluoro-cholecalciferol]	6.80	6.19	–	0.6 mg/kg
